# Measurements from US11998033B2, “Sweetening compositions” (PepsiCo, Inc., priority 2016, dated 2024).
# Read-outs that look alike come from different tables or passages of the source.
# Columns and labels:
# [1] = type: physicochemical
# Procedure: Rebaudioside D has a better sugar character and taste profile than Rebaudioside A, but only about 200 ppm Rebaudioside D can be solubilized in water at 23° C. after about 30 minutes stirring. While up to about 450 ppm rebaudioside can be solubilized after extended stirring, the amount of time required to prepare these higher concentration rebaudioside D solutions is impractical on a commercial scale. Similarly, while an 8000 ppm aqueous rebaudioside D solution can be prepared by heating rebaudioside D in water to nearly 100° C. for two hours, cooling the solution results in recrystallization, making the solution impractical to work with on a commercial manufacturing scale.
# For example, in certain embodiments, rebaudioside D solubility can be increased 50 fold, for example, from about 200 ppm (0.02 weight percent) up to about 10,000 ppm (1 weight percent), when a 1 weight percent rebaudioside D suspension is combined with sufficient stevioside to produce a 50,000 ppm (5 weight percent) steviol glycoside solution. In other embodiments, even greater increases in rebaudioside D solubility can be observed.
# [2] = Example 1: room temperature rebaudioside D solubility (turbidity); type: physicochemical; settings: 0.02 to 1.5 weight percent, ambient temperature, FIG. 1
# Procedure: (§1) For the examples below, turbidity is reported in NTUs and was measured at 20±2° C. using a Hach 2100AN Turbidimeter. The instrument was calibrated using a STABLCAL Calibration Kit including samples having turbidities ranging from 0.1 NTU to 7500 NTU. Test samples were measured in a Turbidimeter glass vial and NTU values were read after a 30 second stabilization period.
# Rebaudioside D was added to a number of beakers in increasing concentrations (0.02 weight percent, 0.04 weight percent, 0.1 weight percent, 0.5 weight percent, 1 weight percent, and 1.5 weight percent) at ambient temperature. Turbidity measurements were taken to track solubility in the various samples and the results were plotted (FIG. 1).
# [3] = Example 2: rebaudioside D solubility at elevated temperatures (turbidity); type: physicochemical
# Procedure: as §1
# The samples prepared in Example 1 were heated to 70° C. and turbidity was measured again. At 70° C., the 0.5 weight percent rebaudioside D sample was soluble. But the 1 and 1.5 weight percent rebaudioside D samples continued to show maximum turbidity (about 12,000 NTU).
# [4] = Example 8: effect of temperature on solubility (appearance, turbidity); type: physicochemical
# Procedure: as §1
# Aqueous samples containing the amounts of rebaudioside D and stevioside listed in Table 3 were prepared by combining the noted amounts of rebaudioside D and stevioside in water. The samples were then warmed to the temperatures noted in the table.
# The appearance of all the samples prepared as above was noted and turbidity measurements were taken to track solubility.
# [5] = Example 4: temperature and low shear mixing (turbidity, HPLC of supernatant); type: physicochemical
# Procedure: This study was conducted with a 5:1 mixture (weight/weight) of rebaudioside A and rebaudioside D and a 5:1 mixture (weight/weight) of a rebaudioside A composition and rebaudioside D, wherein the rebaudioside A composition included 30 weight percent stevioside.
# The described blends were individually combined with water to produce compositions having rebaudioside D concentrations of 1.4 weight percent based on the total mass of the mixture, including water. The mixtures were then mixed under low shear for 10 minutes at ambient temperature (21° C.). A 100 g sample was removed and centrifuged, and the resulting supernatant was analyzed for turbidity and rebaudioside A and D concentration (HPLC).
# The mixtures were then warmed to 45° C. and mixed for 10 minutes. Another 100 g sample was removed and analyzed as described above.
# The mixtures were finally warmed to 65° C. and mixed for 10 minutes. Another 100 g sample was removed an analyzed as described above.
# This experiment was repeated with 10:1 mixtures of the compositions described above, wherein the final rebaudioside D concentration in each of the compositions was 1.43 weight percent, based on the total mass of the composition, including water.
# [6] = type: physicochemical; remark: listed apart in the source
# Procedure: as §1
# Varying concentrations of rebaudioside A, rebaudioside C, rebaudioside B, and rebaudioside M were then added individually to the stevioside/rebaudioside D solutions at 70° C. The solutions were allowed to cool to room temperature. Each sample's appearance was noted and turbidity measurements were taken to track solubility.
# [7] = type: physicochemical; remark: listed apart in the source
# Procedure: as §1
# Suspensions of 1 weight percent rebaudioside D in water at ambient temperature were prepared in five individual beakers. Rebaudioside A, stevioside, rebaudioside C, and rebaudioside M were added to each of the first four beakers, respectively, such that that the resulting weight ratio of rebaudioside D to the added steviol glycoside was 1:5. As a control, no additional steviol glycoside was added to the fifth beaker.
# After stirring, turbidity measurements were taken from each of the five samples and graphed. According to the turbidity measurements, rebaudiosides A and M had no effect on rebaudioside D solubility.
# [8] = Example 9: HPLC analysis of aqueous filtrate after centrifugation and filtration; type: physicochemical; settings: rebaudioside B added at 0.4% to stevioside/rebaudioside D solution, centrifuged, filtered
# Procedure: To confirm that the cloudiness observed in samples comprising rebaudioside B was due to the rebaudioside B itself, a solution of stevioside and rebaudioside D was prepared and rebaudioside B was added at a concentration of 0.4% to form a cloudy suspension. The sample was centrifuged and filtered and the aqueous filtrate was analyzed by HPLC. […] Thus, the cloudiness observed with the addition of rebaudioside B was due to the insolubility of rebaudioside B itself, and not due to the degradation of the rebaudioside D/stevioside complex.
compound,measurement,setting,value
C=C1C[C@@]23CC[C@H]4[C@@](C)(CCC[C@@]4(C)C(=O)O[C@@H]4O[C@H](CO)[C@@H](O)[C@H](O)[C@H]4O[C@@H]4O[C@H](CO)[C@@H](O)[C@H](O)[C@H]4O)[C@@H]2CC[C@]1(O[C@@H]1O[C@H](CO)[C@@H](O)[C@H](O[C@@H]2O[C@H](CO)[C@@H](O)[C@H](O)[C@H]2O)[C@H]1O[C@@H]1O[C@H](CO)[C@@H](O)[C@H](O)[C@H]1O)C3 [rebaudioside D],aqueous rebaudioside D solution that can be prepared by heating,[1],8000 ppm
same,solubility in water at room temperature,[2],insoluble
same,solubility in water,[3]; 0.5 weight percent sample at 70° C.,soluble
same,turbidity,[3]; 1 and 1.5 weight percent samples at 70° C.,"about 12,000 NTU"
same,solubility of rebaudioside D at 70° C. and on cooling,[4]; all four concentrations of rebaudioside D below 0.4,"dissolved at 70° C., but precipitated from solution when cooled unless stevioside was present"
same,solubility of rebaudioside D,"[4]; concentration of 0.1%, 20° C., even up to a 4:1 ratio of stevioside to rebaudioside D",insoluble
C=C1C[C@@]23CC[C@H]4[C@@](C)(CCC[C@@]4(C)C(=O)O[C@@H]4O[C@H](CO)[C@@H](O)[C@H](O)[C@H]4O)[C@@H]2CC[C@]1(O[C@@H]1O[C@H](CO)[C@@H](O)[C@H](O[C@@H]2O[C@H](CO)[C@@H](O)[C@H](O)[C@H]2O)[C@H]1O[C@@H]1O[C@H](CO)[C@@H](O)[C@H](O)[C@H]1O)C3 [rebaudioside A],effect on solubility of rebaudioside D,"[5]; 5:1 mixture with rebaudioside D, 1.4 weight percent rebaudioside D, low shear 10 minutes, at each of 21° C., 45° C. and 65° C.",neither rebaudioside A nor the rebaudioside A/stevioside composition including 30 weight percent stevioside enhanced the solubility of rebaudioside D
same,effect on solubility of rebaudioside D,"[5]; 10:1 mixture with rebaudioside D, 1.43 weight percent rebaudioside D, low shear",did not enhance the solubility of rebaudioside D
same,effect of adding the steviol glycoside on rebaudioside D's solubility,[6],does not affect rebaudioside D's solubility
same,effect of added steviol glycoside on rebaudioside D solubility,[7],no effect
C=C1C[C@@]23CC[C@H]4[C@@](C)(CCC[C@@]4(C)C(=O)O[C@@H]4O[C@H](CO)[C@@H](O)[C@H](O[C@@H]5O[C@H](CO)[C@@H](O)[C@H](O)[C@H]5O)[C@H]4O[C@@H]4O[C@H](CO)[C@@H](O)[C@H](O)[C@H]4O)[C@@H]2CC[C@]1(O[C@@H]1O[C@H](CO)[C@@H](O)[C@H](O[C@@H]2O[C@H](CO)[C@@H](O)[C@H](O)[C@H]2O)[C@H]1O[C@@H]1O[C@H](CO)[C@@H](O)[C@H](O)[C@H]1O)C3 [rebaudioside M],effect of adding the steviol glycoside on rebaudioside D's solubility,[6],does not affect rebaudioside D's solubility
same,effect of added steviol glycoside on rebaudioside D solubility,[7],no effect
rebaudioside B,share of the amount initially added contained in the aqueous filtrate,[8],65%
same,solubility,[6],insoluble
same,appearance after adding the steviol glycoside,[6]; added at or over 0.2% to stevioside/rebaudioside D solution,cloudy solution
C=C1C[C@@]23CC[C@H]4[C@@](C)(CCC[C@@]4(C)C(=O)O[C@@H]4O[C@H](CO)[C@@H](O)[C@H](O)[C@H]4O)[C@@H]2CC[C@]1(O[C@@H]1O[C@H](CO)[C@@H](O)[C@H](O)[C@H]1O[C@@H]1O[C@H](CO)[C@@H](O)[C@H](O)[C@H]1O)C3 [stevioside],effect of added steviol glycoside on rebaudioside D solubility,[7],clear mixture
rebaudioside C,effect of adding the steviol glycoside on rebaudioside D's solubility,[6],does not affect rebaudioside D's solubility
same,turbidity,"[7]; 1 weight percent rebaudioside D in water, ambient temperature, rebaudioside D to added steviol glycoside 1:5 by weight, FIG. 3",about 1000 NTU
